Patent US9358228B2, “Therapeutic combinations of netupitant and palonosetron” (Helsinn Healthcare SA, priority 2011, dated 2016)

Key:
Format in all cases: in vivo, rat
[1] = test system: spinal dorsal horn neurones in SNL rats; test: Electrophysiology: electrically-evoked dorsal horn neural responses; details: for AB-Fiber Response, Number of Action Potentials / AD-Fiber Response, Number of Action Potentials / C-Fiber Response, Number of Action Potentials / Input Response, Number of Action Potentials / Post Discharge Response, Number of Action Potentials / Wind-up Response, Number of Action Potentials: SNL rats, mean ± S.E.
Experimental: Electrophysiology experiments were conducted on post-operative days 14-17 in anaesthetised rats.
We recorded the evoked responses of dorsal horn lamina V-VI neurones to stimulation of the peripheral receptive field with: • a train of 16 electrical pulses at 3×C-fibre threshold • mechanical von Frey filaments of increasing force—vf 2 g, 8 g, 26 g and 60 g applied to the centre of the receptive field for 10 seconds • heat—40, 45 and 48° C. applied to the centre of the receptive field by a constant water jet for 10 seconds
Following 3 stable baseline responses, 0.03 mg/kg Palonosetron and 0.10 mg/kg Netupitant were administered into the scruff of the neck by subcutaneous injection. Drug effects were followed for two hours with tests carried out at 10, 30, 50, 70, 90 and 110 minutes post injection.
Input represents the post-synaptic C-fibre-evoked dorsal horn neuronal response following the first of the 16 electrical stimuli in the electrical train. It gives a measure of resting pre-synaptic activity (taken as total neuronal responsiveness upstream of the neurone under study, therefore including afferent excitability, activity at terminals and interneurones) and transmitter release in the absence of potentiation. The baseline ‘input’ response given numerically and graphically in this and other studies, was calculated as the number of C-fibre-evoked action potentials produced by the first stimulus (i.e. initial baseline response) multiplied by the total number of stimuli. Aβ-, Aδ-, and C-fibre responses denote the number of action potentials respectively generated in the spinal cord as a consequence of Aβ-, Aδ-, and C-fibre activity following electrical stimulation of their peripheral receptive field. Our Spike 2 Data Capturing software separates out which incoming action potentials are carried by which fibre according to their latency to arrive in the spinal cord following generation (given the different conduction velocities of the fibres). Thus, those arriving within 20 ms of peripheral stimulation are attributed to Aβ-fibres, Aδ-fibres=20-90 ms, and C-fibre-evoked responses were taken as those recorded 90-300 ms after electrical stimulation. Neuronal responses that trail behind between 300-800 ms post-stimulus are quantified as post-discharge, and represent spinal cord hyperexcitability that results as a consequence of repetitive stimulation of the neurone. Activity-dependent hyperexcitability can additionally be measured as wind-up. This value is calculated as the difference between the total number of action potentials at C-fibre latency produced by the train of 16 electrical stimuli, and ‘input’ as defined and calculated above. Therefore, if the first electrical stimulus elicited 15 C-fibre-evoked action potentials, and the total number of C-fibre-evoked action potentials recorded after 16 stimuli was 350, then wind up=350−([…])=200. If each post-synaptic response was independent of previous activity, then in the example above, the cumulative number of action potentials evoked by C-fibres after the 16 electrical stimuli should theoretically be […]. However, temporal summation of action potentials, and post-synaptic hyperexcitability amplify responses, so wind-up is a measure of the additional action potentials recorded above the predicted baseline level.

[2] = test system: acetic acid (AA)-induced colonic hypersensitivity in a rodent model; test: Colonic sensitivity assessment: visceromotor response to colorectal distension after acetic acid infusion; details: rats; for inhibition of AA-induced colonic hypersensitivity, agent alone: oral, effective dose not given (0.001-1 mg/kg dosed); for effect of 0.001 mg/kg dose alone on colonic and somatic sensitivity: 0.001 mg/kg p.o., agent alone
Experimental: Induction of Acute Visceral and Somatic Hypersensitivity: Visceral and somatic hypersensitivity were induced by infusing dilute (1.5 ml at 0.6%) acetic acid (AA) into the rat colon via a catheter (Intramedic PE 90 tubing) inserted via the anus to the level of the mid-colon. Within 60 mins colonic and somatic hypersensitivity was evident.
Colonic Sensitivity Assessment: Visceromotor responses (VMR) to colorectal distension (CRD) were measured by counting the number of abdominal contractions in response to increasing levels of CRD (0-60 mmHg). On the day of the colonic sensitivity assessment, a minor surgical procedure was performed to attach a strain gauge force transducer onto the abdominal oblique muscle and attached via an adapter cable to a Grass Model 7 Polygraph. The cable was connected to a Model 7P1 Low-Level DC Pre-Amp. The Pre-Amp was set at 0.02 mV/cm sensitivity and was connected to a Model 7DA DC Driver Amp with sensitivity set at […]. A 5 cm latex balloon was inserted into the distal colon. The balloon cannula was connected to a Distender Series IIR barostat (G & J Electronics Inc.) for controlled, isobaric inflation of the balloon and CRD using constant pressure (isobaric) tonic distensions were conducted at 0, 20, 40 and 60 mmHg. Each pressure was maintained for a period 10 min. during which time the number of abdominal muscle contractions were counted. A 10 min. recovery period was allowed between the each distension.
Test Compounds: Following surgery, rats were pre-dosed with Palonosetron (1-hr pre-dose), Netupitant (2-hr pre-dose) or methyl cellulose vehicle. Palonosetron and Netupitant were supplied by Helsinn Healthcare Inc. and were stored at 4° C. until prepared for dosing as a suspension in 1% methyl cellulose solution. The drug suspensions were prepared so that each rat received an oral dosing volume of 0.5 ml per 100 g body weight for doses of 0.001, 0.01, 0.1 or 1 mg/kg. Compounds were prepared fresh on the day of use.
Statistical Analysis: To determine statistical significance between multiple control and treatment groups, data was compared using one-way ANOVA followed by a Bonferroni post-test. Results were deemed significant when p-values were less than 0.05.

[3] = test system: SNL and Sham rats; test: Rotarod motor performance; details: FIG. 3, 0.03, 0.3 and 3 mg/kg
Excerpt: The rotarod was also used to assess potential effects on motor performance of Netupitant and Palonosetron. Acceleration of the rotarod was set to increase from 0 to 20 revolutions per minute over the period of one minute. Due to initial, non-linear acceleration, rats were placed on the rotarod locked at a speed of 8 revolutions per minute. The rotarod was then set to accelerate and the latency to fall from the rotarod was timed from this point.

| Compound | AB-Fiber Response, Number of Action Potentials ([1]; Netu 0.1 mg/kg s.c.) | AD-Fiber Response, Number of Action Potentials ([1]; Netu 0.1 mg/kg s.c.) | C-Fiber Response, Number of Action Potentials ([1]; Netu 0.1 mg/kg s.c.) | Input Response, Number of Action Potentials ([1]; Netu 0.1 mg/kg s.c.) | Post Discharge Response, Number of Action Potentials ([1]; Netu 0.1 mg/kg s.c.) | Wind-up Response, Number of Action Potentials ([1]; Netu 0.1 mg/kg s.c.) | effect on electrophysiological measures of pain control, agent alone [1] | inhibition of AA-induced colonic hypersensitivity, agent alone [2] | effect of 0.001 mg/kg dose alone on colonic and somatic sensitivity [2] | AB-Fiber Response, Number of Action Potentials ([1]; Palo 0.03 mg/kg s.c.) | AD-Fiber Response, Number of Action Potentials ([1]; Palo 0.03 mg/kg s.c.) | C-Fiber Response, Number of Action Potentials ([1]; Palo 0.03 mg/kg s.c.) | Input Response, Number of Action Potentials ([1]; Palo 0.03 mg/kg s.c.) | Post Discharge Response, Number of Action Potentials ([1]; Palo 0.03 mg/kg s.c.) | Wind-up Response, Number of Action Potentials ([1]; Palo 0.03 mg/kg s.c.) | motor performance, total time spent on a rotarod [3] |
| --- | --- | --- | --- | --- | --- | --- | --- | --- | --- | --- | --- | --- | --- | --- | --- | --- |
| Cc1ccccc1-c1cc(N2CCN(C)CC2)ncc1N(C)C(=O)C(C)(C)c1cc(C(F)(F)F)cc(C(F)(F)F)c1 [Netu, 2-[3,5-bis(trifluoromethyl)phenyl]-N,2-dimethyl-N-[4-(2-methylphenyl)-6-(4-methylpiperazin-1-yl)pyridin-3-yl]propanamide] | 135 ± 10 | 103 ± 13 | 292 ± 45 | 293 ± 46 | 195 ± 29 | 270 ± 38 | independent effect | significantly inhibited | non-effective |  |  |  |  |  |  |  |
| Cl.O=C1c2cccc3c2[C@H](CCC3)CN1[C@@H]1CN2CCC1CC2 [Palo, (3aS)-2-[(S)-1-Azabicyclo[2.2.2]oct-3-yl]-2,3,3a,4,5,6-hexahydro-1-oxo-1Hberiz[de]isoquinoline] |  |  |  |  |  |  | zero or minimal effect | significantly inhibited | non-effective | 141 ± 22 | 192 ± 51 | 518 ± 103 | 461 ± 86 | 417 ± 127 | 559 ± 192 | did not impair motor performance |
